Measurements published in patent publication US20160122320A1, “USEFUL COMBINATIONS OF MONOBACTAM ANTIBIOTICS WITH BETA-LACTAMASE INHIBITORS” (Basilea Pharmaceutica AG, priority 2005, published 2016).

Key:
Assay in all cases: MIC, NCCLS broth microdilution
Type in all cases: cell-based
[1] = system: Enterobacter cloacae B1102
Description: (§1) Antimicrobial activity of the compounds and of their combinations was determined against a selection of organisms according to the standard procedures described by the National Committee for Clinical Laboratory Standards (National Committee for Clinical Laboratory. Standards (2000). Methods for Dilution Antimicrobial Susceptibility Tests for Bacteria That Grow Aerobically-Fifth Edition: Approved Standard M7-A5. NCCLS, Wayne, Pa., USA).
(§2) In all cases the final concentration of DMSO incubated with the bacteria is less than or equal to 1%. […] Plates were incubated overnight at an appropriate temperature (30° C. or 37° C.) and optical densities assessed by eye. The MIC value is defined as the lowest compound concentration completely inhibiting visible growth of the test organism. When combinations between compounds of formula I with compounds of formula II and are evaluated the compounds of formula I are tested in dilution series as described above while the compounds of formula II and III-XIII were present in all wells at a constant concentration of 4 μg/mL each.

[2] = system: Enterobacter cloacae ATCC13047/CRO-R
Description: as §1, §2

[3] = system: Enterobacter cloacae M4018
Description: as §2

Enterobacter cloacae MRW = system: Enterobacter cloacae MRW
Description: as §2

[4] = system: Enterobacter aerogenes Zayakosky; conditions: Enterobacter aerogenes Zayakosky
Description: as §1, §2

[5] = system: Enterobacter aerogenes B1
Description: as §1, §2

Acinetobacter sp. J2 = conditions: for MIC of antibiotic: antibiotic alone, no inhibitor
[6] = system: Pseudomonas aeruginosa MK1184
[7] = system: Pseudomonas aeruginosa 1973E
How it was run: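 Compounds were serially diluted per NCCLS M7-A5 (final DMSO no more than 1%) and incubated with bacteria overnight at 30° C. or 37° C. Visible growth was then judged by eye. For combinations, partner compounds sat in every well at a constant 4 μg/mL each.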

Enterobacter cloacae P99 = system: Enterobacter cloacae P99
[8] = system: Klebsiella pneumoniae CF104
Serratia marcescens S6 = system: Serratia marcescens S6
[9] = system: Stenotrophomonas malthophilia 1AC736; conditions: for MIC of antibiotic: antibiotic alone, no inhibitor
Description: as §1, §2

[10] = + compound 323 and clavulanate, 4 mg/L each
[11] = with clavulanate (clavulanic acid)

CC1C(NC(=O)C(=NOCc2cc(=O)c(O)cn2O)c2csc(N)n2)C(=O)N1S(=O)(=O)O (stereo not drawn) [Compound 1]
0.5 mg/L: MIC of antibiotic at fixed inhibitor concentration of 4 mg/L ([8]; with 501) | MIC of antibiotic at fixed inhibitor concentration of 4 mg/L [8, 11] | MIC of antibiotic at fixed inhibitor concentration of 4 mg/L (Serratia marcescens S6; with 202 and clavulanate) | MIC of antibiotic at fixed inhibitor concentration of 4 mg/L (Serratia marcescens S6; with 323 and sulbactam) | MIC of antibiotic ([9]; Stenotrophomonas malthophilia 1AC736) | MIC of antibiotic at fixed inhibitor concentration of 4 mg/L ([9]; Stenotrophomonas maltophilia 1AC736, with clavulanate (clavulanic acid))
4 mg/L: Minimal Inhibitory Concentration of antibiotic at fixed inhibitor concentration of 4 mg/L (Enterobacter cloacae MRW; [10]) | Minimal Inhibitory Concentration of antibiotic at fixed inhibitor concentration of 4 mg/L [5, 10] | MIC of antibiotic at fixed inhibitor concentration of 4 mg/L (Acinetobacter sp. J2; Acinetobacter baumannii J2, with 111 and clavulanate) | MIC of antibiotic at fixed inhibitor concentration of 4 mg/L (Acinetobacter sp. J2; Acinetobacter baumannii J2, with 202 and clavulanate) | MIC of antibiotic at fixed inhibitor concentration of 4 mg/L (Acinetobacter sp. J2; Acinetobacter baumannii J2, with 206 and clavulanate) | MIC of antibiotic at fixed inhibitor concentration of 4 mg/L ([6]; with 102 and clavulanate) | MIC of antibiotic at fixed inhibitor concentration of 4 mg/L ([6]; with 323 and sulbactam) | MIC of antibiotic at fixed inhibitor concentration of 4 mg/L ([7]; with 111 and clavulanate) | MIC of antibiotic at fixed inhibitor concentration of 4 mg/L ([7]; with 202 and clavulanate) | MIC of antibiotic at fixed inhibitor concentration of 4 mg/L ([7]; with 206 and clavulanate) | MIC of antibiotic at fixed inhibitor concentration of 4 mg/L ([7]; with 323 and sulbactam) | MIC of antibiotic at fixed inhibitor concentration of 4 mg/L (Enterobacter cloacae P99; with 102 and clavulanate) | MIC of antibiotic at fixed inhibitor concentration of 4 mg/L (Enterobacter cloacae P99; with 111 and clavulanate) | MIC of antibiotic at fixed inhibitor concentration of 4 mg/L (Enterobacter cloacae P99; with 323 and clavulanate) | MIC of antibiotic at fixed inhibitor concentration of 4 mg/L (Enterobacter cloacae P99; with 323 and sulbactam) | MIC of antibiotic at fixed inhibitor concentration of 4 mg/L (Enterobacter cloacae P99; with 324 and clavulanate) | MIC of antibiotic at fixed inhibitor concentration of 4 mg/L (Serratia marcescens S6; with 206 and clavulanate) | MIC of antibiotic at fixed inhibitor concentration of 4 mg/L (Serratia marcescens S6; with 501) | MIC of antibiotic at fixed inhibitor concentration of 4 mg/L (Serratia marcescens S6; [11])
2 mg/L: Minimal Inhibitory Concentration of antibiotic at fixed inhibitor concentration of 4 mg/L [3, 10] | MIC of antibiotic at fixed inhibitor concentration of 4 mg/L ([7]; with 102 and clavulanate) | MIC of antibiotic at fixed inhibitor concentration of 4 mg/L ([8]; with 202 and clavulanate) | MIC of antibiotic at fixed inhibitor concentration of 4 mg/L ([8]; with 323 and clavulanate) | MIC of antibiotic at fixed inhibitor concentration of 4 mg/L ([9]; Stenotrophomonas maltophilia 1AC736, with 102 and sulbactam)
1 mg/L: MIC of antibiotic at fixed inhibitor concentration of 4 mg/L (Acinetobacter sp. J2; Acinetobacter baumannii J2, with 323 and sulbactam) | MIC of antibiotic at fixed inhibitor concentration of 4 mg/L ([8]; with 102 and clavulanate) | MIC of antibiotic at fixed inhibitor concentration of 4 mg/L ([8]; with 323 and sulbactam) | MIC of antibiotic at fixed inhibitor concentration of 4 mg/L ([8]; with 324 and clavulanate) | MIC of antibiotic at fixed inhibitor concentration of 4 mg/L (Serratia marcescens S6; with 324 and clavulanate) | MIC of antibiotic ([9]; Stenotrophomonas maltophilia 1AC736)
32 mg/L: Minimal Inhibitory Concentration of antibiotic at fixed inhibitor concentration of 4 mg/L ([1]; + clavulanate 4 mg/L) | Minimal Inhibitory Concentration of antibiotic ([3]; antibiotic alone) | Minimal Inhibitory Concentration of antibiotic at fixed inhibitor concentration of 4 mg/L (Enterobacter cloacae MRW; + clavulanate 4 mg/L) | Minimal Inhibitory Concentration of antibiotic at fixed inhibitor concentration of 4 mg/L (Enterobacter cloacae MRW; + compound 501 4 mg/L) | Minimal Inhibitory Concentration of antibiotic ([5]; antibiotic alone) | MIC of antibiotic at fixed inhibitor concentration of 4 mg/L (Acinetobacter sp. J2; Acinetobacter baumannii J2, with 324 and clavulanate) | MIC of antibiotic at fixed inhibitor concentration of 4 mg/L (Enterobacter cloacae P99; [11])
0.25 mg/L: MIC of antibiotic at fixed inhibitor concentration of 4 mg/L ([8]; with 206 and clavulanate) | MIC of antibiotic at fixed inhibitor concentration of 4 mg/L (Serratia marcescens S6; with 111 and clavulanate) | MIC of antibiotic at fixed inhibitor concentration of 4 mg/L (Serratia marcescens S6; with 323 and clavulanate) | MIC of antibiotic at fixed inhibitor concentration of 4 mg/L ([9]; Stenotrophomonas maltophilia 1AC736, with 501)
8 mg/L: Minimal Inhibitory Concentration of antibiotic at fixed inhibitor concentration of 4 mg/L [1, 10] | Minimal Inhibitory Concentration of antibiotic at fixed inhibitor concentration of 4 mg/L [2, 10] | Minimal Inhibitory Concentration of antibiotic at fixed inhibitor concentration of 4 mg/L ([3]; + compound 206 4 mg/L) | MIC of antibiotic at fixed inhibitor concentration of 4 mg/L ([6]; with 103 and clavulanate) | MIC of antibiotic at fixed inhibitor concentration of 4 mg/L ([6]; with 111 and clavulanate) | MIC of antibiotic at fixed inhibitor concentration of 4 mg/L ([6]; with 202 and clavulanate) | MIC of antibiotic at fixed inhibitor concentration of 4 mg/L ([7]; with 323 and clavulanate) | MIC of antibiotic at fixed inhibitor concentration of 4 mg/L ([7]; with 324 and clavulanate) | MIC of antibiotic at fixed inhibitor concentration of 4 mg/L ([7]; with 501) | MIC of antibiotic at fixed inhibitor concentration of 4 mg/L [7, 11] | MIC of antibiotic at fixed inhibitor concentration of 4 mg/L (Enterobacter cloacae P99; with 206 and clavulanate)
>32 mg/L: Minimal Inhibitory Concentration of antibiotic ([1]; antibiotic alone) | Minimal Inhibitory Concentration of antibiotic at fixed inhibitor concentration of 4 mg/L ([2]; + clavulanate 4 mg/L) | Minimal Inhibitory Concentration of antibiotic at fixed inhibitor concentration of 4 mg/L ([2]; + compound 206 4 mg/L) | Minimal Inhibitory Concentration of antibiotic at fixed inhibitor concentration of 4 mg/L ([2]; + compound 501 4 mg/L) | Minimal Inhibitory Concentration of antibiotic ([2]; antibiotic alone) | Minimal Inhibitory Concentration of antibiotic at fixed inhibitor concentration of 4 mg/L ([3]; + clavulanate 4 mg/L) | Minimal Inhibitory Concentration of antibiotic (Enterobacter cloacae MRW; antibiotic alone) | Minimal Inhibitory Concentration of antibiotic at fixed inhibitor concentration of 4 mg/L ([4]; + clavulanate 4 mg/L) | Minimal Inhibitory Concentration of antibiotic at fixed inhibitor concentration of 4 mg/L ([4]; + compound 206 4 mg/L) | Minimal Inhibitory Concentration of antibiotic at fixed inhibitor concentration of 4 mg/L ([4]; + compound 501 4 mg/L) | Minimal Inhibitory Concentration of antibiotic ([4]; antibiotic alone) | Minimal Inhibitory Concentration of antibiotic at fixed inhibitor concentration of 4 mg/L ([5]; + clavulanate 4 mg/L) | Minimal Inhibitory Concentration of antibiotic at fixed inhibitor concentration of 4 mg/L ([5]; + compound 501 4 mg/L) | MIC of antibiotic (Acinetobacter sp. J2; Acinetobacter baumannii J2) | MIC of antibiotic at fixed inhibitor concentration of 4 mg/L (Acinetobacter sp. J2; Acinetobacter baumannii J2, with clavulanate (clavulanic acid)) | MIC of antibiotic (Acinetobacter sp. J2; Acinetobacter sp. J2) | MIC of antibiotic ([6]; antibiotic alone, no inhibitor) | MIC of antibiotic at fixed inhibitor concentration of 4 mg/L ([6]; with 206 and clavulanate) | MIC of antibiotic at fixed inhibitor concentration of 4 mg/L ([6]; with 501) | MIC of antibiotic at fixed inhibitor concentration of 4 mg/L [6, 11] | MIC of antibiotic (Enterobacter cloacae P99; antibiotic alone, no inhibitor) | MIC of antibiotic ([8]; antibiotic alone, no inhibitor)
0.125 mg/L: MIC of antibiotic at fixed inhibitor concentration of 4 mg/L ([9]; Stenotrophomonas maltophilia 1AC736, with 111 and clavulanate) | MIC of antibiotic at fixed inhibitor concentration of 4 mg/L ([9]; Stenotrophomonas maltophilia 1AC736, with 202 and clavulanate) | MIC of antibiotic at fixed inhibitor concentration of 4 mg/L ([9]; Stenotrophomonas maltophilia 1AC736, with 206 and clavulanate) | MIC of antibiotic at fixed inhibitor concentration of 4 mg/L ([9]; Stenotrophomonas maltophilia 1AC736, with 323 and clavulanate) | MIC of antibiotic at fixed inhibitor concentration of 4 mg/L ([9]; Stenotrophomonas maltophilia 1AC736, with 323 and sulbactam) | MIC of antibiotic at fixed inhibitor concentration of 4 mg/L ([9]; Stenotrophomonas maltophilia 1AC736, with 324 and clavulanate)
<0.06 mg/L: MIC of antibiotic at fixed inhibitor concentration of 4 mg/L (Acinetobacter sp. J2; Acinetobacter baumannii J2, with 501) | MIC of antibiotic at fixed inhibitor concentration of 4 mg/L ([8]; with 111 and clavulanate)
16 mg/L: Minimal Inhibitory Concentration of antibiotic at fixed inhibitor concentration of 4 mg/L ([1]; + compound 206 4 mg/L) | Minimal Inhibitory Concentration of antibiotic at fixed inhibitor concentration of 4 mg/L ([1]; + compound 501 4 mg/L) | Minimal Inhibitory Concentration of antibiotic at fixed inhibitor concentration of 4 mg/L ([3]; + compound 501 4 mg/L) | Minimal Inhibitory Concentration of antibiotic at fixed inhibitor concentration of 4 mg/L (Enterobacter cloacae MRW; + compound 206 4 mg/L) | Minimal Inhibitory Concentration of antibiotic at fixed inhibitor concentration of 4 mg/L [4, 10] | Minimal Inhibitory Concentration of antibiotic at fixed inhibitor concentration of 4 mg/L ([5]; + compound 206 4 mg/L) | MIC of antibiotic at fixed inhibitor concentration of 4 mg/L (Acinetobacter sp. J2; Acinetobacter baumannii J2, with 323 and clavulanate) | MIC of antibiotic at fixed inhibitor concentration of 4 mg/L ([6]; with 323 and clavulanate) | MIC of antibiotic ([7]; antibiotic alone, no inhibitor) | MIC of antibiotic at fixed inhibitor concentration of 4 mg/L (Enterobacter cloacae P99; with 202 and clavulanate) | MIC of antibiotic at fixed inhibitor concentration of 4 mg/L (Enterobacter cloacae P99; with 501)
